From patent publication US20130123282A1, “SOLID STATE FORMS OF LINAGLIPTIN” (priority 2011, published 2013)

Tests used:
Format in all cases: physicochemical
[1] = Polymorphic stability on storage under different relative humidity levels (XRD)
From the text: In addition to the properties mentioned above, Form XXII is particularly important as it can be obtained and exist at ambient conditions as single, pure phase. […] is also particularly advantageous, for example, in being non-hygroscopic and polymorphic stable under different relative humidity levels.
(§1) In addition to the properties mentioned above, Form XXII is particularly important as it can be obtained and exist at ambient conditions as single, pure phase. […] Form XXII is also non-hygroscopic and polymorphic stable under different relative humidity levels.
The XRD analyses were performed on ARL (SCINTAG) powder X-Ray diffractometer model X′TRA equipped with a solid state detector. Copper radiation of 1.5418 Å was used. Scanning parameters: range: 2-40 degrees two-theta; scan mode: continuous scan; step size: 0.05°, and a rate of 3 deg/min. The position of the silicon (111) peak was corrected to be 28.45 degrees two theta. The positions of the XRD peaks for the Linagliptin forms were corrected respectively. […]

[2] = Polymorphic stability when slurried in solvents; settings: slurrying in different solvents, such as acetonitrile and ethanol
From the text: as §1

[3] = Hygroscopicity according to Ph.Eur. chapter 5.11; settings: non-hygroscopic = less than 0.2% (w/w) absorption of water, Ph.Eur. 5.11
From the text: As used herein, and unless stated otherwise, the term “non-hygroscopic” in relation to crystalline Linagliptin refers to less than 0.2% (w/w) absorption of water, for example atmospheric water, by the crystalline Linagliptin, as determined according to Ph.Eur. chapter 5.11 (“Hygroscopicity”)

Structure (SMILES) | solid form found by XRD after exposure to humidity ([1]; exposed to 100% relative humidity for 7 days) | polymorphic transformation on storage ([1]; stored for 7 days at room temperature under 0-80% relative humidity) | polymorphic transformation on slurrying [2] | hygroscopicity [3] | polymorphic transformation on storage ([1]; stored for 7 days at room temperature under 0-100% relative humidity)
CC#CCn1c(N2CCC[C@@H](N)C2)nc2c1c(=O)n(Cc1nc(C)c3ccccc3n1)c(=O)n2C [Form X, Linagliptin] | Linagliptin form XII | no polymorphic transformation is observed |  |  | 
CC#CCn1c(N2CCC[C@@H](N)C2)nc2c1c(=O)n(Cc1nc(C)c3ccccc3n1)c(=O)n2C [Form XXII, Linagliptin] |  |  | do not transform to other forms | non-hygroscopic | no polymorphic transformation is observed
